Like-named read-outs stand apart in the source and are kept apart here.

The text below walks through data of patent US20230002377A1, “THERAPEUTIC COMBINATIONS OF DRUGS AND METHODS OF USING THEM” (HARMONY BIOSCIENCES, LLC, priority 2020, published 2023).

The series can be described thus: 14-day once-a-day oral multiple ascending dose PK study, day-14 data. It counts as in vivo, human. The following applies: for Cmax: read-out: Formula I plasma concentration (Cmax); for concentration at 0 h: day 14, blood draw at 0 h (pre-dose trough). The method, then:
A LC-MS/MS method was developed and validated for the quantitation of Formula I in 0.250 mL of human EDTA plasma in a total of 7 runs, out of which 1 run was rejected. The method utilized stable labeled Formula I as an internal standard. After the addition of the internal standard (equivalent to 285.4 ng/mL in human EDTA plasma) and 0.250 mL of each quality control (QC) sample and calibration standard, 0.525 mL of methyl t-butyl ether (MTBE) was added to the 96-well sample tubes. The organic layer was removed and evaporated to dryness using a liquid-liquid extraction (LLE). The residue was reconstituted and injected into the LC-MS/MS system. Chromatographic separation was achieved through gradient elution on an Acquity UPLC, BEH Shield RP18™, 50×2.1 mm, 1.7 μm particle size column. The mobile phase contained water, acetonitrile, ammonium formate, and formic acid. Detection was accomplished using a Sciex API 4000 tandem mass spectrometer in positive ion electrospray SRM mode. The standard curves, which ranged from 1.00 to 1000 ng/mL for Formula I, were fitted to a 1/×2 weighted linear regression model. The intra-assay precisions, based on four levels of analytical QCs (low, mid, GM, and high), were within 4.2% CV and inter-assay precisions were within 7.2% CV for the analyte. The assay accuracy, expressed as % DEV, was within 6.4% of the nominal concentration values for the analyte. […] The LLOQ response ratio, when compared to the QCO response ratio, was >, 5 in all matrix lots. The analyte was stable in human EDTA plasma for at least 24 h at room temperature, for at least 14 days at −20° C., and following at least 3 freeze-thaw cycles. The processed samples were stable for 72 hours (h) at room temperature.
Tabulated, day-14 PK data (Cmax, Ctrough and AUC) for healthy humans in a 14-day, once-a-day oral dosing, multiple ascending dose study of compound of Formula I.

For orientation: AUC means concentration integrated over time. Lower therefore signals less exposure. Turning to `Clc1ccc(C2CNCc3cc(-c4ccc5ncnn5c4)ccc32)cc1Cl` (stereo not drawn) [Formula I, 7-([1,2,4]triazolo[1,5-a]pyridin-6-yl)-4-(3,4-dichlorophenyl)-1,2,3,4-tetrahydroisoquinoline], the “Formula I plasma concentration” value (3 mg daily, male, day 14, draw at about 23-24 h (Ctrough)) came out at 42 ng/mL. In addition, the Cmax amounted to 1680 ng/mL (female, human, plasma, oral, 45 mg, 45 mg daily, day 14, draw flagged Cmax (1-3 h)); 66 ng/mL (male, human, plasma, oral, 3 mg, 3 mg daily, male, day 14, draw flagged Cmax (1-3 h)); 218 ng/mL (male, human, plasma, oral, 10 mg, 10 mg daily, day 14, draw flagged Cmax (1-3 h)); 1150 ng/mL (male, human, plasma, oral, 45 mg, 45 mg daily, day 14, draw flagged Cmax (1-2 h)). Further, the concentration at 0 h (female, human, plasma, oral, 45 mg, 45 mg daily, female, read-out: Formula I plasma concentration) worked out at 997 ng/mL; the concentration at 0 h (male, human, plasma, oral, 3 mg, 3 mg daily, male, read-out: Formula I plasma concentration) was 42 ng/mL; the concentration at 0 h (male, human, plasma, oral, 10 mg, 10 mg daily, male, read-out: Formula I plasma concentration) is 125 ng/mL; the concentration at 0 h (male, human, plasma, oral, 45 mg, 45 mg daily, male, read-out: Formula I plasma concentration) was found to be 635 ng/mL. Also, the concentration at 24 h (female, human, plasma, oral, 45 mg, 45 mg daily, female, day 14, draw at about 24 h (Ctrough), read-out: Formula I plasma concentration) amounted to 901 ng/mL. For the same compound, the AUC (female, human, plasma, oral, 45 mg, 45 mg daily, female, day 14, printed in the 24 h draw line) was found to be 10100 ng·h/mL; the exposure (AUC) (male, human, plasma, oral, 3 mg, 3 mg daily, male, day 14, printed in the 23-24 h draw line) stood at 439 ng·h/mL; the AUC (male, human, plasma, oral, 10 mg, 10 mg daily, male, day 14, printed in the 23-24 h draw line) turned out to be 1260 ng·h/mL; the AUC (male, human, plasma, oral, 45 mg, 45 mg daily, male, day 14, printed in the 23 h draw line) amounted to 6280 ng·h/mL. Also, the concentration at 23 h (male, human, plasma, oral, 45 mg, 45 mg daily, male, day 14, draw at 23 h (Ctrough), read-out: Formula I plasma concentration) was determined as 672 ng/mL.
